Experimental findings from patent publication US20210298299A1 (priority 2018, published 2021) are described below.

What all share (format): in vivo
The test system of test [1] is leaf rust fungus Puccinia recondita. The test can be described thus: Test for control efficacy against wheat leaf rust. Conditions: alone, scale of 0 to 10. The method, then: Test for Control Efficacy Against Wheat Leaf Rust
The agrochemical formulations diluted to predetermined concentrations were applied to wheat plants at a predetermined amount with a spray gun. After air-drying, the wheat plants were spray-inoculated with a spore suspension of the leaf rust fungus Puccinia recondita (1.0×10^7 spores/mL). After that, the wheat pots were kept in a greenhouse under light conditions at 15° C. and 100% RH to induce the development of the disease. At 7 days after the inoculation, the disease area percentage was indexed on a scale of 0 to 10 to evaluate the control efficacy.

In test [2] the test system is cucumber anthracnose fungus Colletotrichum orbiculare. Conditions: 3 ppm, alone; rating scale of Test Example 1.
For test [3], the system named is Plutella xylostella. The test can be described thus: Test for control efficacy against Plutella xylostella. Conditions: alone. From the text: Test for Control Efficacy Against Plutella xylostella
Brassica oleracea var. capitata (variety: YR Seitoku) seedlings were planted in a glass greenhouse, and after reaching the 12- to 15-leaf stage, the seedlings were inoculated with 3rd-instar larvae of Plutella xylostella. The number of surviving larvae per three plants before agrochemical treatment was counted. A mixed formulation of compound [1-2] and flubendiamide (prepared according to Formulation Example 5) and each individual agrochemical were separately diluted to predetermined concentrations in water and applied to the Brassica oleracea var. capitata plants. The number of surviving larvae was counted at 2 and 6 days after the application, and the control efficacy was calculated by the equation 5 shown below. In addition, the expected value E was calculated by Colby's equation as described in Test Example 1.
Control efficacy (%)=100−{(Ta×Cb)/(Tb×Ca)}×100 [Math. 5]
Ta=number of survivors after agrochemical treatment in treatment plot
Tb=number of survivors before agrochemical treatment in treatment plot […]
As a result of the test for control efficacy against Plutella xylostella, the control efficacy of the composition composed of compound […] was greater than the expected value E calculated by Colby's equation from the control efficacy of the individual compounds. […]

Test [4] concerns Laodelphax striatellus. Put plainly: Test for control efficacy against Laodelphax striatellus. The settings on record: alone, 30 days after the agrochemical treatment. From the text:
Test for Control Efficacy Test Against Laodelphax striatellus
Adults of the test insect were released onto rice plants (variety: Kinmaze, 95 days after transplantation) grown in individual 2-L pots (8 females and 5 males per pot). At 11 days after the insect release (when hatched larvae were observed), mixed formulations of compound [1-7] and other agrochemicals and each individual agrochemical (prescribed effective doses) were separately applied. After air-drying and at 10 days after the agrochemical treatment, adults of the test insect were additionally released onto the rice plants (8 females and 5 males per pot). At 30 days after the agrochemical treatment, the number of survivors was measured, and the control value was calculated by equation 6. In addition, the expected value E for the mixed use was calculated by Colby's equation as described in Test Example 1. When the actual control efficacy of combined treatment with two different agrochemicals is greater than the expected value E, the combination can be regarded as having synergistic effect.
Control value (%)=(1−number of survivors/number of survivors in control plot)×100 [Math. 6]
Assuming that the control value for “no grade” is 49%, when the control values of the two different agrochemicals are both 49%, the expected value E calculated by Colby's equation is as follows: E=(49+49)−(49×49/100)=73.99. The control value of 73.99 corresponds to grade C. Therefore, when both the agrochemicals are graded as no grade, the expected value is C.

The subject of test [5] is tomato late blight fungus Phytophthora infestans. Conditions: 3 ppm, alone; rating scale of Test Example 2.

Structures are written as SMILES.

For `COC(=O)N(OC)c1ccccc1COc1ccn(-c2ccc(Cl)cc2)n1` [Pyraclostrobin 25EC, pyraclostrobin], the Control value in test [1] (1 ppm) is recorded as 5.0; in test [1] (3 ppm), 9.0; in test [2], 7.0; in test [5], 4.0. Also, the Grade entry is “No grade (less than 50%)” in test [3] (10 ppm), “A (100%)” in test [3] (50 ppm), “No grade (less than 50%)” in test [4] (10 ppm) and “A (100%)” in test [4] (50 ppm).
